Row | SMILES | melting point [°C]
1 | CC1(c2ccccc2)SCN=C1COc1ccc(C#N)cn1 (centres undefined) | 124 to 125
2 | Cc1cccc(C)c1N(Cn1cc(C(C)C)cn1)C(=O)CCl | 58
3 | CCCc1c2c(cc3c(=O)cc(C(=O)O)oc13)CCCC2 | 235
4 | OCCCOc1ccc(Cl)cc1Cl | 53 to 55
5 | Cc1nn(C)cc1S(N)(=O)=O | 97 to 105
6 | CCCCOC(=O)c1nc(Cl)c2ccc(OC(C)C)cc2c1O | 116 to 118
7 | CC(C)C(C(=O)O)n1sc2ccccc2c1=O (centres undefined) | 166 to 168
8 | CN1Cc2c(-c3nnc(CN)o3)ncn2-c2ccsc2C1=O | 217 to 219
9 | Clc1ccc(OCc2ccccc2)nn1 | 77 to 78
10 | Cn1cc2snnc2n1 | 125 to 127
11 | N=C1SCCN1c1ccc(N)cc1 | 148
12 | COC(=O)CSc1ncnc(N2CCc3ccccc3CC2)c1[N+](=O)[O-] | 113 to 115
13 | O=C(NCCCOc1ccncc1)c1cccnc1 | 117 to 119
14 | CC(C)(C)OC(=O)N1CCCN(c2ccc([N+](=O)[O-])cc2C#N)CC1 | 98
15 | COc1ncnc(-c2cc([N+](=O)[O-])c(C#N)cc2F)c1C | 129 to 131
16 | O=[N+]([O-])c1cc([N+](=O)[O-])c2[nH]c(C(F)(F)F)nc2c1N1CCCCC1 | 207 to 209
17 | CCOC(=O)c1c(CC)[nH]c(CC)c1C | 101 to 103
18 | COC(=O)c1ccc(C2=NC(C)(C)Cc3cc(OC)c4c(c32)CC(C)(C)O4)cc1NC(=O)C(F)(F)F | 146 to 147
19 | CCOC(=O)c1cn(N(C)C)c2ccccc2c1=O | 119 to 120
20 | O=C(c1ccccc1)c1ccc[nH]1 | 76 to 77
21 | CC(C)(C)C(=O)c1c[nH]nc1N | 159 to 160
22 | NNc1nc(F)c(CC(F)(F)F)cc1Cl | 104 to 106
23 | CSC1C(=O)Nc2c(C(=O)c3ccccc3)cccc21 (centres undefined) | 130

Row | SMILES | melting point [°C]
24 | COc1c2c(c(OC)c(OC)c1OC)CC(CCCCOc1ccc(C(=O)N(C)C)cc1)C2 | 99 to 102
25 | NC(=O)Cc1ccc2c(c1)CCc1ccccc1S2 | 188 to 189
26 | N#Cc1ccc(N(N)Cc2ccc(Br)cc2)cc1 | 90
27 | COC(=O)[C@H](Cc1ccc(I)cc1)NC(C)=O | 118 to 120
28 | CCCCc1nc2c(N)nc3cccnc3c2n1CCNC(=O)C(N)CC(C)C (centres undefined) | 60 to 65
29 | FC(F)(F)c1cc(C(F)(F)F)c2[nH]c(N3CCN(c4ncccc4Br)CC3)nc2c1 | 166
30 | Cc1cc(-n2nc3ccc(Cl)cc3n2)c(O)c(C(C)(C)C)c1 | 138 to 140
31 | OCC12CC3CC(CC(C3)C1O)C2 (centres undefined) | 172 to 174
32 | Clc1ccc(C2Nc3ccccc3S2)cc1 (centres undefined) | 85 to 87
33 | Cn1cc(Cl)cc(Br)c1=O | 162 to 163
34 | CCOC(=O)N(CC(=O)O)C(=O)c1c(F)ccc2c(C(F)(F)F)c(OC)ccc12 | 136 to 138
35 | CCCCCCCCCCCCCCCCCCNCC(O)CO (centres undefined) | 81 to 83
36 | O=C(Nc1ccc2ccc(Cl)nc2n1)c1ccccc1 | 198
37 | C[C@@H](CNC(=O)OC(C)(C)C)c1ccc(O)c(O)c1 | 116 to 118
38 | CC1(C)CCC(C)(C#N)c2ccccc21 (centres undefined) | 46
39 | CC(=O)Oc1cccc(C=C2CCCc3cc(C)cnc32)c1 | 66 to 68
40 | O=[N+]([O-])c1cccc2cc(-c3ncns3)[nH]c12 | 186 to 187
41 | O=C1CCCc2c1ccc(OCc1ccccc1)c2Cl | 99 to 100
42 | COC(=O)C(C)(C)NC(=O)Nc1ccc(Cl)c(C(F)(F)F)c1 | 141 to 142
43 | CC1CC(=O)c2c(Cl)c(F)cc3c(=O)c(C(=O)O)cn1c23 (single isomer, unassigned; (-)) | 294 to 296
44 | CN1CCC(Oc2ccc(Br)cc2C(N)=O)C1 (centres undefined) | 160 to 162
45 | CCOC(=O)Cn1c2cccccc-2c(CC)c1=O | 128 to 131
46 | Cc1cc(C)c2c(O)c([N+](=O)[O-])c(=O)oc2c1 | 186 to 187

Row | SMILES | melting point [°C]
47 | CCOC(=O)C(=CNC1CC1)C(=O)c1c(F)cc(F)c(F)c1C | 69 to 72
48 | CCCC[N+]([O-])=Cc1ccc(OCc2ccccc2)c(OC)c1 | 81.2
49 | CC(Cl)C(=O)NCCO (centres undefined) | 64
50 | CC(=O)N1CCOc2ccc(C3=NNC(=O)CC3)cc21 | 156 to 158
51 | Nc1ccc(CCCO)cc1 | 54 to 56
52 | CCN(CC)C(=O)Cc1ccc(O)c(C(C)(C)C)c1 | 124 to 126
53 | N#Cc1cnn2c(-c3ccncc3)ccnc12 | 137 to 138
54 | CNNC(=O)c1ccc(C(=O)NNC)cc1 | 240 to 241
55 | Cc1nc(Cl)ccc1C#N | 104 to 105
56 | COc1cc(C)c(S(=O)(=O)c2cccc(C)c2)cc1OC | 135 to 140
57 | CN(N)C(=O)Nc1ccccc1Oc1ccccc1 | 117 to 119
58 | COc1ccc(Oc2nccnc2Cl)cc1 | 62 to 64
59 | Cc1ccc2ccn(CC(C)O)c2c1 (racemic) | 65 to 69
60 | CC(=O)O[C@H]1CCCNC1=O | 77 to 78
61 | Cc1ccc(C(=O)C2=C(N)CCCC2)cc1 | 130 to 131
62 | CCOCC1=C(C(=O)OCC)C(c2ccccc2)C(C(=O)OCC)=C(C)N1 (centres undefined) | 112
63 | COc1ccc(-c2nc(SCCCSc3nc(-c4ccc(OC)cc4)c(-c4ccc(OC)cc4)[nH]3)[nH]c2-c2ccc(OC)cc2)cc1 | 128 to 130
64 | O=C(Nc1cccc(Br)c1)NC1N=C(c2ccccc2F)c2ccccc2N(CC(=O)N2CC3CCC(CC3)C2)C1=O (racemic) | 173 to 186
65 | N#Cc1cccc2nnsc12 | 114 to 117
66 | COc1ccc2[nH]c(C(=O)c3ccc(F)cc3)cc2c1 | 167 to 169
67 | O=C(Cc1ccccc1)Nc1ccccc1 | 115 to 116

The remaining lines, values ahead:

Row | melting point [°C] | SMILES
68 | 184 | CS(=O)(=O)C(=C1CN(C(c2ccccc2)c2ccccc2)C1)c1cccc([N+](=O)[O-])c1
69 | 194 | CN(C)c1cc(N2C(=O)N3CCCC3(Cc3ccc(Br)cc3)C2=O)cc(Cl)n1 (centres undefined)
70 | 143 to 145 | COc1ccc(OCC2CC(Cn3ccnc3)(c3ccc4ccccc4c3)N(C)O2)cc1 (centres undefined)
71 | 249 to 251 | CC(C)(C)CC(C)(C)c1ccc(OCCOC(=O)c2ccc(Nc3nc(Cl)nc(Cl)n3)cc2)cc1
72 | 195 to 197 | CC1(C)NC(=O)N(CC(CS(=O)(=O)c2ccc(-c3ccc(OC(F)(F)F)cc3)cc2)N(O)C=O)C1=O (centres undefined)
73 | 107 to 113 | CCC(NC(=NC#N)Nc1ccc(N(C)C)nc1)c1ccccc1 (centres undefined)
74 | 85 to 88 | CN(C)Cc1ccc(-c2ccc(C(=O)c3ccc(Br)cc3)c(O)c2)cc1
75 | 143 to 145 | COc1ccc(-c2nn(-c3ccc(C)cc3)c3ncccc23)cc1
76 | 245 to 247 | CCN1CCN(c2ccc(Nc3cc(-c4cccc(-n5ncc6cc(C(C)(C)C)cc(F)c6c5=O)c4CO)nn(C)c3=O)nc2)CC1
77 | 137 to 139 | c1ccc(Nc2nc(-c3cccs3)nc3ccccc23)cc1
78 | 212 to 215 | O=C(OC1CCN(c2ccc3[nH]c(=O)ccc3c2)CC1)c1ccccc1
79 | 159 to 161 | N#CCC1OC(n2cnc3c(NN4CCC(Sc5ccccc5)CC4)nc(Cl)nc32)C(O)C1O (centres undefined)
80 | 168 to 172 | CS(=O)(=O)Nc1ccc(OCCN2CCC(C(=O)c3ccc(NS(C)(=O)=O)cc3)CC2)cc1
81 | 124 to 126 | CN(C)S(=O)(=O)c1cccc2c1Sc1ccc(OCc3ccccc3)cc1N2CCCCl
82 | 125 to 150 | Cc1cc(Nc2ccnc(Nc3ccc(S(=O)(=O)N(C)C4CCN(Cc5cnn(C)c5)CC4)cc3)n2)ccc1F
83 | 206 | Cc1cc(NC(=O)c2cnccn2)nc(C)c1Br
84 | 172 | COc1ccc(CN(C)CCc2ccc(NC(=O)c3cccc4c(=O)c5ccccc5[nH]c34)cc2)cc1OC
85 | 156 to 157 | COc1ccc(C2=NN(c3nc(C)ccc3C(F)(F)F)C(=O)C3CC=CCC23)cc1Cl (centres undefined)
86 | 74 to 75 | CCc1nc(-c2cccc(C)c2)c(-c2ccnc(NCC3CCCCC3)c2)s1

Row | melting point [°C] | SMILES
87 | 134 to 138 | CCCCC(CC)CNc1cccc(-c2ccnc3c(C(=O)c4cccs4)cnn23)c1 (centres undefined)
88 | 117 to 119 | COc1ccc(S(=O)(=O)C(CC=C(C)C)(Cc2cccnc2)C(=O)O)cc1 (centres undefined)
89 | 154 to 156 | COc1ccc(Cc2nc3n(c2Cc2ccc(OC)cc2)CCS3)cc1
90 | 133 | CC(C)c1ccc(N(Cc2ccc(N(C)C)cc2)C(=O)C2CCCc3cc(OCCN(C)C)ccc32)cc1 (centres undefined)
91 | 162 to 163 | O=C(NN1CCc2ccccc2C1)Oc1ccc2c(c1)CN(Nc1ccncc1)C2
92 | 117 to 119 | O=C(NCC1(O)CCCCCC1)c1cc(-c2cccnc2N2CCC(C(=O)O)CC2)ccc1Cl
93 | 170 to 185 | O=C(O)c1ccccc1-n1c(-c2ccccc2)cc2c1-c1ccccc1CC2
94 | 159 to 160 | OCc1c(Cl)nc2ccccc2c1-c1ccc(F)cc1
95 | 93 to 94 | CO[C@H]1CCCC[C@@]1(OC)c1cccc(OCc2ccc3ccccc3c2)c1 (racemic)
96 | 178 to 185 | N#Cc1ccc(-c2cn(-c3ccc(Br)cc3)cn2)cc1
97 | 178 to 185 | CN1CCN(c2ccc(-c3cnc4[nH]cc(C(=O)N[C@@H](C(=O)N5CC(C#N)C5)C5CC5)c4n3)cc2)CC1
98 | 223 to 226 | CNc1cccc(-c2ccc3nnc(C)n3n2)c1
99 | 214 to 216 | Cc1oc(-c2ccccc2)nc1CCOc1ccc(C[C@H](NC(=O)C=Cc2cccc(C(F)(F)F)c2)C(=O)O)cc1
100 | 255 to 257 | Nc1c(-c2ccc(-c3ccc(F)cc3)cc2)nc2ccc(Cl)cc2c1C(=O)O
101 | 274 to 276 | O=CN1CC2CC1CN2c1cc2c(cc1F)c(=O)c(C(=O)O)cn2-c1ccc(F)cc1 (centres undefined)
102 | 140 to 143 | Cc1ccc(S(=O)(=O)NN=C2CCCCCCC2)cc1
103 | 167 to 171 | COc1ccc2c(c1)CCc1ccc(-c3ccccc3)cc1C21N=C(N)N(C)C1=O (centres undefined)
104 | 234 to 236 | CCOC(=O)c1ccc(-c2csc(-c3ccc(Cl)cc3)n2)s1
